Laboratory results from ChEMBL document CHEMBL1127238, “The discovery of L-699,392, a novel potent and orally active leukotriene D4 receptor antagonist” (Bioorg Med Chem Lett, 1994).

Assays:
[1] = Compound was tested for plasma clearance in rats after 5 mg/kg of intravenous dosing; format: ADME, organism-based; design: dose 5 mg/kg, route intravenous; conditions: rat
[2] = biological target: T1, Cysteinyl leukotriene receptor 1 (Cavia porcellus, UniProt Q2NNR5); assay: Inhibitory activity against binding of [3H]LTD4 to Cysteinyl leukotriene D4 receptor in guinea pig lung membranes; format: cell membranes, Membrane
T1 sequence (Q2NNR5 whole entry): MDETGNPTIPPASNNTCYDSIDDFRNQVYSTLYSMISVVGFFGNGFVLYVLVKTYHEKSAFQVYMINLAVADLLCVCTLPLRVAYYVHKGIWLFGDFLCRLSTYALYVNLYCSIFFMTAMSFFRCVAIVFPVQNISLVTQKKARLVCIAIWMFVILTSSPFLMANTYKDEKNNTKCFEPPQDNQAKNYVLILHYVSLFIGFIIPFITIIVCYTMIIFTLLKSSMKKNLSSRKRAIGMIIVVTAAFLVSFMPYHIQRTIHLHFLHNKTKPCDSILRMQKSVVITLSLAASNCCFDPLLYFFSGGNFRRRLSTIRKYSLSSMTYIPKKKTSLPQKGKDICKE

[3] = Apparent bioavailability in squirrel monkey was determined; format: ADME, organism-based; conditions: in vivo; read-out: Bioavailabiility

Row | clearance [1] | IC50 [2] | bioavailability [3] | SMILES
1 | 33 mL/min/kg | 1 nM |  | C[C@H](CS[C@@H](CCc1ccccc1CC(C)(C)O)c1cccc(/C=C/c2ccc3ccc(Cl)cc3n2)c1)C(=O)O
2 | 11 mL/min/kg | 3 nM | 52% | CC(=O)c1ccccc1CC[C@H](SC[C@@H](C)C(=O)O)c1cccc(/C=C/c2ccc3ccc(Cl)cc3n2)c1
3 | 14 mL/min/kg | 2.7 nM |  | C[C@H](CS[C@@H](CCc1ccccc1C(C)(C)O)c1cccc(/C=C/c2ccc3ccc(Cl)cc3n2)c1)C(=O)O
4 | 5 mL/min/kg | 3.1 nM |  | C[C@H](CS[C@@H](CCc1ccccc1CO)c1cccc(/C=C/c2ccc3ccc(Cl)cc3n2)c1)C(=O)O

More lines, now with the values behind:

Row | SMILES | clearance [1] | IC50 [2] | bioavailability [3]
5 | CCC(=O)c1ccccc1CC[C@H](SC[C@@H](C)C(=O)O)c1cccc(/C=C/c2ccc3ccc(Cl)cc3n2)c1 | 13 mL/min/kg | 3.7 nM | 
6 | C[C@H](CS[C@@H](CCc1ccccc1C=O)c1cccc(/C=C/c2ccc3ccc(Cl)cc3n2)c1)C(=O)O | 6 mL/min/kg | 2 nM | 
7 | COC(=O)c1cccc(CC[C@H](SC[C@@H](C)C(=O)O)c2cccc(/C=C/c3ccc4ccc(Cl)cc4n3)c2)c1 | 6 mL/min/kg | 7 nM | 
8 | C[C@H](CS[C@@H](CCc1ccccc1C(=O)c1ccccc1)c1cccc(/C=C/c2ccc3ccc(Cl)cc3n2)c1)C(=O)O | 18 mL/min/kg | 4.3 nM | 
9 | CCOC(=O)c1ccccc1CC[C@H](SC[C@@H](C)C(=O)O)c1cccc(/C=C/c2ccc3ccc(Cl)cc3n2)c1 | 4.8 mL/min/kg | 3.7 nM | 
10 | CC(=O)c1cccc(CC[C@H](SC[C@@H](C)C(=O)O)c2cccc(/C=C/c3ccc4ccc(Cl)cc4n3)c2)c1 | 2 mL/min/kg | 5.9 nM | 
11 | C[C@H](CS[C@@H](CCc1cccc(CO)c1)c1cccc(/C=C/c2ccc3ccc(Cl)cc3n2)c1)C(=O)O | 2.5 mL/min/kg | 2.1 nM | 
